In publication PMC9401487 (Clinical Cancer Research, 2021):

Columns and labels:
advanced solid tumors = experiment: Preliminary antitumor activity, tumor response by RECIST v1.1; assay type: in vivo, human
[1] = tested on: LoVo colorectal cancer cell line; experiment: LoVo growth inhibition, ceralasertib alone or with carboplatin; assay type: cell-based, human

For C[C@@H]1COCCN1c1cc(C2([S@](C)(=N)=O)CC2)nc(-c2cc[nH]c3nccc2-3)n1 [ceralasertib], the “Best response of progressive disease, patients” value (advanced solid tumors; 12 of 34 response-evaluable patients) was 35%, the “Best RECIST v1.1 response of stable disease (≥35 days), patients” value (advanced solid tumors; 18 of 34 response-evaluable patients, including the two unconfirmed PRs) was 53% and the “Unconfirmed RECIST v1.1 PRs” value (advanced solid tumors; evaluable-for-response set n=34, 1 in cohort 3, 1 in cohort 7) was 2 patients. The “Confirmed RECIST v1.1 partial responses” value (advanced solid tumors; evaluable-for-response set n=34, both in cohort 6) was 2 patients, the “Tumor reduction (unconfirmed response)” value (advanced solid tumors; one patient, cohort 7, clear cell ovarian cancer, two cycles) was 43% and the “Combination cell killing with carboplatin” value (“Combination cell killing” for short) ([1]; 0.1 μmol/L ceralasertib) was “not at 0.1 μmol/L”. The “Combination cell killing” value ([1]; 0.3 μmol/L ceralasertib) was “combination cell killing with carboplatin was seen” and the “Combination cell killing” value ([1]; 1 μmol/L ceralasertib) was “Greater cell killing”.
